Measurements: US12458659B2, “Methods for treating macrophage-mediated diseases, and methods of identifying agents useful therefore” (The Regents of the University of California, priority 2019, dated 2025)

Key:
Slc44a1/CTL1 = Slc44a1/CTL1 induction by LPS in BMDM (QPCR); type: cell-based, mouse; conditions: BMS345541-pretreated BMDM treated with LPS
Method: RNA Isolation and Quantitative Real-Time PCT (QPCR)—RNA was extracted using AllPrep DNA/RNA Mini kit, and cDNA was synthesized using SUPERSCRIPT™ VILO™ cDNA Synthesis Kit. mRNA expression was determined by QPCR in a CFX96 thermal cycler (Biorad) as described (Zhong et al., 2016c). Data are presented in arbitrary units and were calculated by 2^(-delta delta CT) method. Primer sequences were obtained from the NIH qPrimerDepot (mouseprimerdepot.nci.nih.gov) and provided by Integrated DNA technologies, as set forth below.

NLRP3 inflammasome = assay: IL-1β release by LPS-primed macrophages stimulated with NLRP3 activators (ELISA); type: cell-based, mouse; conditions: BMDM pretreated with A769662, LPS-primed, ATP and nigericin 40 min
Method: Macrophage culture and stimulation—Femurs and tibias from C57BL/6 mice, Ampkα1^−/− mice, and Il10rb^−/− mice at 6-10 weeks of age were used to generate bone-marrow-derived macrophages (BMDM) as described (Hornung et al., 2008). Macrophages were cultured in DMEM supplemented with 10% FBS, 20% L929-cell conditioned medium, and 100 U/ml penicillin-streptomycin for 7-10 days. Bone marrow was isolated from MWS Nlrp3^A350VneoRCreT, FCAS Nlrp3^L351PneoCreT and NOMID Nlrp3^D301NneoCreT conditional knock-in mice (Bonar et al., 2012; Brydges et al., 2009), and were allowed to differentiate over 7 days with addition of fresh mouse recombinant GMCSF every three days. (Z)-4-hydroxitamoxifen at 0.4 μg/ml was added to cells 24 hr prior to treatment to induce the mutant Nlrp3 allele. Immortalized mouse BMDM were grown in DMEM supplemented with 10% FBS and 100 U/ml penicillin-streptomycin. All cells were grown at 37° C. with 5% CO2. NLRP3 inflammasome activation was induced priming for 4 hr with ultrapure LPS (100 ng/ml) followed by treatment with the NLRP3 activators ATP (4 mM) and nigericin (10 μM) for 45 min, unless otherwise indicated, and monosodium urate (MSU) crystals (400 μg/ml) and 1,2-dioleoyl-3-trimethylammoniumpropane (DOTAP) liposomes (50 μg/ml) for 3 hr. In Nlrp3 mutant macrophages IL-1b production was induced by LPS treatment for 16 hr at 37° C., whereas FCAS macrophages were incubated at 32° C. without LPS addition. AIM2 inflammasome activation was induced by 4 hr LPS priming and transfection with lipofectamine 3000 and the AIM2 activator poly(dA:dT) (1 μg/ml) for 8 hr. For choline deprivation experiments, the cells were cultured in CMRL1066 medium with or without choline for 2-3 hr before priming with LPS and kept during the experiment.
(§1) Protein Immunoblotting and ELISA—Mitochondria were isolated using Mitochondria Isolation kit. Whole cell lysates were prepared in NP40 buffer containing a protease inhibitor cocktail and a phosphatase inhibitor cocktail, and supernatants were analyzed by SDS-PAGE. […]

[1] = system: MWS Nlrp3^A350VneoRCreT mutant mice; assay: Muckle Wells Syndrome mice; type: in vivo, mouse; conditions: 2.5 mg/kg IP BID for 15 days
Method: Muckle Wells Syndrome Mice—Sixteen- to twenty-two-week-old male MWS Nlrp3^A350VneoRCreT mutant mice were subjected to MN58b (2.5 mg/kg) or vehicle IP injection BID daily for 15 days. Tamoxifen (50 mg/kg) was administered daily via IP for 4 days after first MN58b (or vehicle) treatment, and once more on day 7 to maintain Cre expression. At the endpoint, blood, spleen and liver were collected for analysis. Complete blood counts were preformed using a ScilVet Animal Blood Counter (ABX Diagnostics). Livers were paraffin embedded and hematoxylin and eosine staining was performed to assess liver histology. None of the animals was excluded from the analysis and liver histology was blind examined.

C57BL/6 mice [2] = assay: LPS-induced septic shock; type: in vivo, mouse
Method: LPS-induced septic shock and air pouch model—Eight- to twelve-week-old C57BL/6 mice were subjected to LPS-induced septic shock as described (Zhong et al., 2016c). Briefly, 50 mg/kg LPS was intraperitoneal (IP) injected, and when indicated, animals were pretreated with the ChoKα inhibitor MN58B 2.5 mg/kg or vehicle (sodium chloride) via IP injection daily, starting three days before LPS challenge. Mice were analyzed for survival and circulating cytokines (3 hr after LPS challenge). None of the animals was excluded from the analysis.

C57BL/6 mice [3] = assay: Synovium-like air pouch gout model (MSU crystals); type: in vivo, mouse
Method: Synovium-like air pouch gout model—Subcutaneous air pouches were generated by repeated injection of sterile air into 8-12-week old C57BL/6 mice to create an accessible space that develops a synovium-like membrane within 7 days as described (Wang et al., 2016). Afterward, mice were treated with MN58b IP (2.5 mg/kg) or vehicle, 24 hr before injecting lml MSU crystals (3 mg/ml) into the air pouch. Pouch tissue and fluids were harvested 8 hr later for analysis. None of the animals was excluded from the analysis.

[4] = system: choline mobilization via the Kennedy pathway; assay: Choline, phosphocholine and phosphatidylcholine content of LPS-stimulated BMDM (NMR, MS); type: cell-based, mouse; conditions: BMDM, LPS 4 hr
Method: Choline and Phosphocholine Analysis by NMR—BMDM were treated with LPS for 4 hr and then were collected and processed for NMR analysis as described (Guma et al., 2015a; Tiziani et al., 2009). Polar metabolite isolation was performed using a modified Bligh-Dyer procedure (Wu et al., 2008). Extracts were dried using a CentriVap refrigerated vacuum concentrator (Labconco, Kansas City, MO, USA). Dried extracts were reconstituted in 100 mM phosphate buffer (pH 7.0) prepared in 10% H2O/90% D2O (Sigma) that contained 0.5 mM sodium 3-(trimethylsilyl)propionate-2,2,3,3,-d4 (TMSP) as the internal standard. One-dimensional ^1H NMR spectra were acquired on a Bruker Avance III 500 MHz with 1.7 mm TCI MicroCryoProbe system (Bruker BioSpin Corp., Billerica, MA) equipped with an autosampler at 300 K and processed as previously described (Lodi et al., 2017; Lu et al., 2017; Ludwig and Gunther, 2011). Metabolite assignment and quantification were performed using the Chenomx 8.2 NMR Suite (Chenomx Inc., Edmonton, Alberta, Canada), the Birmingham Metabolite Library (Ludwig et al., 2012), and the Human Metabolome Database (Wishart et al., 2012).
Total phosphatidylcholine and mitochondrial lipids analysis by mass spectrometry—Total phosphatydilcholine (PC) analysis was measured in RSM932A-pretreated BMDM stimulated with LPS for 4 hr, while mitochondrial lipids were measured in mitochondria isolated from BMDM cultured in control or choline deficient medium and subjected to different treatments for 24 hr. Samples were processed for UHPLC-MS/MS analysis and analysis was performed on a hybrid quadrupole-Orbitrap mass spectrometer (Q Exactive, Thermo Scientific, Bremen, Germany) coupled to an Accela 1250 UHPLC system equipped with a quaternary pump, vacuum degasser, and open autosampler with temperature controller (6° C.; Fisher Scientific, San Jose, CA, USA). […]

CTL1 [5] = assay: CTL1 protein expression in LPS stimulated BMDM (immunoblot); type: cell-based, mouse; conditions: LPS stimulation
CTL1, sequence (Q6X893 whole entry): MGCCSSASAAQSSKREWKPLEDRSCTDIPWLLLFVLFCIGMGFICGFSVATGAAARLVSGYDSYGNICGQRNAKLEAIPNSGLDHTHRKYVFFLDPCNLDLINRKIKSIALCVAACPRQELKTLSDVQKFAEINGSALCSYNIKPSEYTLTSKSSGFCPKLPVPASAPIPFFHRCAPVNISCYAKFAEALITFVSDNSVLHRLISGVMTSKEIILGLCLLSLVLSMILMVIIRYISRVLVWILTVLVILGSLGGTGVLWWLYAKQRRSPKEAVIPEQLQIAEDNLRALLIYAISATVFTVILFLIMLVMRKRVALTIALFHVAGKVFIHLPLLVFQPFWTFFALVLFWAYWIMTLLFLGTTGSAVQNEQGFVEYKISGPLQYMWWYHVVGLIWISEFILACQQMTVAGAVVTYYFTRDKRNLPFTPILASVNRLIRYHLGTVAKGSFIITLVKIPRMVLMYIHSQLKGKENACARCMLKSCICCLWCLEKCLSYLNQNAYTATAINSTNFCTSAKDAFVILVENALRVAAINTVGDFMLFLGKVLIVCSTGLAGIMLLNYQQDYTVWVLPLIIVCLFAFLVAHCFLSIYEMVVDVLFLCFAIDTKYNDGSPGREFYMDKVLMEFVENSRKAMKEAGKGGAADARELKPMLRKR
Method: Macrophage culture and stimulation—Femurs and tibias from C57BL/6 mice, Ampkα1^−/− mice, and Il10rb^−/− mice at 6-10 weeks of age were used to generate bone-marrow-derived macrophages (BMDM) as described (Hornung et al., 2008). Macrophages were cultured in DMEM supplemented with 10% FBS, 20% L929-cell conditioned medium, and 100 U/ml penicillin-streptomycin for 7-10 days. Bone marrow was isolated from MWS Nlrp3^A350VneoRCreT, FCAS Nlrp3^L351PneoCreT and NOMID Nlrp3^D301NneoCreT conditional knock-in mice (Bonar et al., 2012; Brydges et al., 2009), and were allowed to differentiate over 7 days with addition of fresh mouse recombinant GMCSF every three days. (Z)-4-hydroxitamoxifen at 0.4 μg/ml was added to cells 24 hr prior to treatment to induce the mutant Nlrp3 allele. Immortalized mouse BMDM were grown in DMEM supplemented with 10% FBS and 100 U/ml penicillin-streptomycin. All cells were grown at 37° C. with 5% CO2. […]
as §1

ChoKα = ChoKα levels after colchicine treatment; type: cell-based
CTL1 [6] = assay: CTL1 levels after colchicine treatment; type: cell-based

## Cc1ccc2nc(NCCN)c3ncc(C)n3c2c1 [BMS345541]
Slc44a1/CTL1
  Slc44a1/CTL1 induction: blocked

## N#Cc1c(O)c2c(-c3ccc(-c4ccccc4O)cc3)csc2[nH]c1=O [A769662]
NLRP3 inflammasome
  IL-1β production: significantly reduced

## CN(C)c1cc[n+](Cc2ccc(CCCCc3ccc(C[n+]4ccc(N(C)C)cc4)cc3)cc2)cc1.[Br-].[Br-] [MN58b]
[1]
  MWS splenomegaly: reduced
  granulocytes: reduction
  liver size: reduced
  lymphocyte count: without an effect
  monocytes: reduction
  total white blood cells count: reduction
C57BL/6 mice [2]; 2.5 mg/kg IP daily for 3 days before 50 mg/kg LPS IP
  LPS-induced death: prevented
C57BL/6 mice [2]; 2.5 mg/kg IP daily for 3 days before LPS, 3 hr after LPS
  circulating IL-1β: reduced
C57BL/6 mice [2]; circulating, 3 hr after LPS
  IL-6 production: did not inhibit
  TNF production: did not inhibit
C57BL/6 mice [3]; 2.5 mg/kg 24 hr before MSU crystals
  total leukocyte recruitment into the pouch: attenuated
C57BL/6 mice [3]; 2.5 mg/kg 24 hr before MSU crystals, pouch
  production of IL-1β: reduced
C57BL/6 mice [3]; 2.5 mg/kg IP 24 hr before MSU crystals, pouch harvested 8 hr later, p<0.01
  reduction of IL-1β release: 66%
C57BL/6 mice [3]; 2.5 mg/kg IP 24 hr before MSU crystals, pouch harvested 8 hr later, p<0.05
  reduction of MSU crystal-induced leukocyte recruitment: 47%

## lipopolysaccharide [LPS]
[4]; p<0.001
  increase of phosphocholine: 559%
[4]; p<0.01
  increase of intracellular choline: 238%
CTL1 [5]
  increase of CTL1 expression: 6 fold

## COc1cc2c(c(OC)c1OC)-c1ccc(OC)c(=O)cc1[C@@H](NC(C)=O)CC2 [colchicine]
ChoKα
  reduction of ChoKα levels: 85%
CTL1 [6]
  reduction of CTL1 levels: 90%
